Assay results published in PubChem BioAssay (NCI).
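1) Cells in 96-well plates. 2) Compound, 48 h, 5 concentrations. 3) Linear interpolation between surrounding doses. 4) Unreached endpoint = highest concentration. GI50 is the concentration that inhibits growth by half. The concentration for full growth arrest is given as TGI.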

system: KM12 colon; assay: inhibition of tumour cell growth, NCI panel, 48 h

SMILES	GI50	TGI
COc1ccc(C(=O)/C=C/c2cccnc2Nc2cc(OC)c(OC)c(OC)c2)cc1	530 nM	2790 nM
NCCCCn1c2c(c3ccccc3c1=O)C(=O)c1ccccc1-2	188 nM	678 nM
CCOC(=O)c1c(C)n(Cc2ccc(OC)cc2)c2c1cc(O)c1[nH]c3c(c12)CCCC3	2040 nM	5430 nM
COc1cc2c3c(n(CCCBr)c(=O)c2cc1OC)-c1ccc(NC(C)=O)cc1C3=O	7350 nM	> 100000 nM
COc1ccc(S(=O)(=O)N(Cc2ccc3c(n2)C=CC(C)(C)O3)C2CCC2)cc1OC	< 10 nM	> 37700 nM
COc1ccc(C2CC(=O)c3c(O)c(OC)c(OC)c(OC)c3O2)c(O)c1 (centres undefined)	69.3 nM	15700 nM

system: MDA-MB-231 breast; assay: inhibition of tumour cell growth, NCI panel, 48 h

SMILES	TGI	GI50
O=c1[nH]c(=O)n(C2CC(O)C(CS)O2)cc1F (centres undefined)	> 100000 nM	–
CNC1C(=O)C(C)C(O)(C(CC(C)C(O)/C=C/C=C/CNC(=O)C(C)(C)C(O)\C(C)=C/C=C\C=C\Cc2cnc(C)o2)OC)C12C(=O)OC2COC (centres undefined) (tested in a mixture with another compound)	> 63300 nM	–
O=C(O)C(Sc1ccc(Cl)cc1)Sc1ccc(Cl)cc1	> 100000 nM	–
CC[C@H](C)[C@H](NC(=O)[C@H]1CCCCN1C)C(=O)N(C)[C@H](CCc1nc(C(=O)N[C@@H](Cc2ccccc2)C[C@H](C)C(=O)OC)cs1)C(C)C	1800 nM	360 nM
COc1ccc(C(=O)/C=C/c2cccnc2Nc2cc(OC)c(OC)c(OC)c2)cc1	12400 nM	2670 nM
NCCCCn1c2c(c3ccccc3c1=O)C(=O)c1ccccc1-2	848 nM	230 nM
CCOC(=O)c1c(C)n(Cc2ccc(OC)cc2)c2c1cc(O)c1[nH]c3c(c12)CCCC3	> 100000 nM	617 nM
COc1cc(-c2c(C#N)c(N)n3c(nc4ccccc43)c2C#N)cc(Br)c1OC	> 100000 nM	2460 nM
COc1cc2c3c(n(CCCBr)c(=O)c2cc1OC)-c1ccc(NC(C)=O)cc1C3=O	> 100000 nM	25800 nM
COc1ccc(S(=O)(=O)N(Cc2ccc3c(n2)C=CC(C)(C)O3)C2CCC2)cc1OC	13.1 nM	< 10 nM
COc1ccc(C2CC(=O)c3c(O)c(OC)c(OC)c(OC)c3O2)c(O)c1 (centres undefined)	31700 nM	997 nM

system: MOLT-4 leukemia; assay: inhibition of tumour cell growth, NCI panel, 48 h

SMILES	TGI	GI50
O=c1[nH]c(=O)n(C2CC(O)C(CS)O2)cc1F (centres undefined)	> 100000 nM	–
CNC1C(=O)C(C)C(O)(C(CC(C)C(O)/C=C/C=C/CNC(=O)C(C)(C)C(O)\C(C)=C/C=C\C=C\Cc2cnc(C)o2)OC)C12C(=O)OC2COC (centres undefined) (tested in a mixture with another compound)	35800 nM	–
O=C(O)C(Sc1ccc(Cl)cc1)Sc1ccc(Cl)cc1	> 100000 nM	–
CC[C@H](C)[C@H](NC(=O)[C@H]1CCCCN1C)C(=O)N(C)[C@H](CCc1nc(C(=O)N[C@@H](Cc2ccccc2)C[C@H](C)C(=O)OC)cs1)C(C)C	> 25000 nM	727 nM
COc1ccc(C(=O)/C=C/c2cccnc2Nc2cc(OC)c(OC)c(OC)c2)cc1	7640 nM	2260 nM
COc1cc(-c2c(C#N)c(N)n3c(nc4ccccc43)c2C#N)cc(Br)c1OC	> 100000 nM	> 100000 nM
COc1ccc(S(=O)(=O)N(Cc2ccc3c(n2)C=CC(C)(C)O3)C2CCC2)cc1OC	35.5 nM	< 10 nM
COc1ccc(C2CC(=O)c3c(O)c(OC)c(OC)c(OC)c3O2)c(O)c1 (centres undefined)	29600 nM	1650 nM
